From ChEMBL document CHEMBL6127052, “Discovery of membrane-targeting amphiphilic honokiol derivatives containing an oxazolethione moiety to combat methicillin-resistant Staphylococcus aureus (MRSA) infections” (Eur J Med Chem, 2024)
≈ marks a conversion by molar mass, not a printed value.

Test system: Staphylococcus aureus
Assay: Antibacterial activity against methicillin-resistant Staphylococcus aureus clinical isolate M12 by CLSI based micro-broth dilution method
Type: functional

Compound | MIC [µg/mL]
C=CCc1cc(-c2ccc(OCCC[N+](C)(C)CC(=O)NCCCC)c(CC=C)c2)c2oc(=S)n(Cc3ccc(F)cc3Cl)c2c1.[Br-] | 32
C=CCc1cc(-c2ccc(OCCC[N+](C)(C)CC(=O)NCCCC)c(CC=C)c2)c2oc(=S)n(Cc3cc(Cl)cc(Cl)c3)c2c1.[Br-] | 8
C=CCc1cc(-c2ccc(OCCC[N+](C)(C)CC(=O)NCCCC)c(CC=C)c2)c2oc(=S)n(Cc3cccc(Cl)c3Cl)c2c1.[Br-] | 8
C=CCc1cc(-c2ccc(OCCC[N+](C)(C)CC(=O)NCCCC)c(CC=C)c2)c2oc(=S)n(Cc3cccc(Br)c3)c2c1.[Br-] | 8

Test system: Staphylococcus aureus
Assay: Antibacterial activity against methicillin-resistant Staphylococcus aureus clinical isolate M11 by CLSI based micro-broth dilution method
Type: functional

Compound | MIC [µg/mL]
C=CCc1cc(-c2ccc(OCCC[N+](C)(C)CC(=O)NCCCC)c(CC=C)c2)c2oc(=S)n(Cc3ccc(F)cc3Cl)c2c1.[Br-] | 16
C=CCc1cc(-c2ccc(OCCC[N+](C)(C)CC(=O)NCCCC)c(CC=C)c2)c2oc(=S)n(Cc3cc(Cl)cc(Cl)c3)c2c1.[Br-] | 32
C=CCc1cc(-c2ccc(OCCC[N+](C)(C)CC(=O)NCCCC)c(CC=C)c2)c2oc(=S)n(Cc3cccc(Cl)c3Cl)c2c1.[Br-] | 16
C=CCc1cc(-c2ccc(OCCC[N+](C)(C)CC(=O)NCCCC)c(CC=C)c2)c2oc(=S)n(Cc3cccc(Br)c3)c2c1.[Br-] | 8

Test system: Staphylococcus aureus
Assay: Antibacterial activity against Staphylococcus aureus ATCC 29213 by CLSI based micro-broth dilution method
Type: functional

Compound | MIC [µg/mL]
C=CCc1cc(-c2ccc(OCCC[N+](C)(C)CC(=O)NCCCC)c(CC=C)c2)c2oc(=S)n(Cc3ccc(F)cc3Cl)c2c1.[Br-] | 32
C=CCc1cc(-c2ccc(OCCC[N+](C)(C)CC(=O)NCCCC)c(CC=C)c2)c2oc(=S)n(Cc3cc(Cl)cc(Cl)c3)c2c1.[Br-] | 64
C=CCc1cc(-c2ccc(OCCC[N+](C)(C)CC(=O)NCCCC)c(CC=C)c2)c2oc(=S)n(Cc3cccc(Cl)c3Cl)c2c1.[Br-] | 32
C=CCc1cc(-c2ccc(OCCC[N+](C)(C)CC(=O)NCCCC)c(CC=C)c2)c2oc(=S)n(Cc3cccc(Br)c3)c2c1.[Br-] | 16

Test system: not listed separately
Assay: Hemolytic activity in sheep erythrocytes incubated for 1 hr by absorbance based assay
Type: toxicity, cell-based, Ovis aries, Erythrocyte

Compound | HC50 at 1 h [µg/mL]
C=CCc1cc(-c2ccc(OCCC[N+](C)(C)CC(=O)NCCCC)c(CC=C)c2)c2oc(=S)n(Cc3ccc(F)cc3Cl)c2c1.[Br-] | > 160
C=CCc1cc(-c2ccc(OCCC[N+](C)(C)CC(=O)NCCCC)c(CC=C)c2)c2oc(=S)n(Cc3cc(Cl)cc(Cl)c3)c2c1.[Br-] | 31.3
C=CCc1cc(-c2ccc(OCCC[N+](C)(C)CC(=O)NCCCC)c(CC=C)c2)c2oc(=S)n(Cc3cccc(Cl)c3Cl)c2c1.[Br-] | 22
C=CCc1cc(-c2ccc(OCCC[N+](C)(C)CC(=O)NCCCC)c(CC=C)c2)c2oc(=S)n(Cc3cccc(Br)c3)c2c1.[Br-] | > 160

Test system: Staphylococcus aureus
Assay: Antibacterial activity against methicillin-resistant Staphylococcus aureus clinical isolate M17 by CLSI based micro-broth dilution method
Type: functional

Compound | MIC [µg/mL]
C=CCc1cc(-c2ccc(OCCC[N+](C)(C)CC(=O)NCCCC)c(CC=C)c2)c2oc(=S)n(Cc3ccc(F)cc3Cl)c2c1.[Br-] | 64
C=CCc1cc(-c2ccc(OCCC[N+](C)(C)CC(=O)NCCCC)c(CC=C)c2)c2oc(=S)n(Cc3cc(Cl)cc(Cl)c3)c2c1.[Br-] | 32
C=CCc1cc(-c2ccc(OCCC[N+](C)(C)CC(=O)NCCCC)c(CC=C)c2)c2oc(=S)n(Cc3cccc(Cl)c3Cl)c2c1.[Br-] | 64
C=CCc1cc(-c2ccc(OCCC[N+](C)(C)CC(=O)NCCCC)c(CC=C)c2)c2oc(=S)n(Cc3cccc(Br)c3)c2c1.[Br-] | 32

Test system: not listed separately
Assay: Selectivity index, ratio of HC50 for hemolytic activity in sheep erythrocytes to MIC for antibacterial activity against Staphylococcus aureus ATCC 29213
Type: toxicity, cell-based, RBC

Compound | selectivity ratio
C=CCc1cc(-c2ccc(OCCC[N+](C)(C)CC(=O)NCCCC)c(CC=C)c2)c2oc(=S)n(Cc3ccc(F)cc3Cl)c2c1.[Br-] | > 5
C=CCc1cc(-c2ccc(OCCC[N+](C)(C)CC(=O)NCCCC)c(CC=C)c2)c2oc(=S)n(Cc3cc(Cl)cc(Cl)c3)c2c1.[Br-] | 0.5
C=CCc1cc(-c2ccc(OCCC[N+](C)(C)CC(=O)NCCCC)c(CC=C)c2)c2oc(=S)n(Cc3cccc(Cl)c3Cl)c2c1.[Br-] | 0.7
C=CCc1cc(-c2ccc(OCCC[N+](C)(C)CC(=O)NCCCC)c(CC=C)c2)c2oc(=S)n(Cc3cccc(Br)c3)c2c1.[Br-] | > 10

Test system: Staphylococcus aureus
Assay: Antibacterial activity against methicillin-resistant Staphylococcus aureus clinical isolate M22 by CLSI based micro-broth dilution method
Type: functional

Compound | MIC [µg/mL]
C=CCc1cc(-c2ccc(OCCC[N+](C)(C)CC(=O)NCCCC)c(CC=C)c2)c2oc(=S)n(Cc3ccc(F)cc3Cl)c2c1.[Br-] | 64
C=CCc1cc(-c2ccc(OCCC[N+](C)(C)CC(=O)NCCCC)c(CC=C)c2)c2oc(=S)n(Cc3cc(Cl)cc(Cl)c3)c2c1.[Br-] | 32
C=CCc1cc(-c2ccc(OCCC[N+](C)(C)CC(=O)NCCCC)c(CC=C)c2)c2oc(=S)n(Cc3cccc(Cl)c3Cl)c2c1.[Br-] | 64
C=CCc1cc(-c2ccc(OCCC[N+](C)(C)CC(=O)NCCCC)c(CC=C)c2)c2oc(=S)n(Cc3cccc(Br)c3)c2c1.[Br-] | 32

Test system: Staphylococcus aureus
Assay: Antibacterial activity against methicillin-resistant Staphylococcus aureus clinical isolate M23 by CLSI based micro-broth dilution method
Type: functional

Compound | MIC [µg/mL]
C=CCc1cc(-c2ccc(OCCC[N+](C)(C)CC(=O)NCCCC)c(CC=C)c2)c2oc(=S)n(Cc3ccc(F)cc3Cl)c2c1.[Br-] | 32
C=CCc1cc(-c2ccc(OCCC[N+](C)(C)CC(=O)NCCCC)c(CC=C)c2)c2oc(=S)n(Cc3cc(Cl)cc(Cl)c3)c2c1.[Br-] | 32
C=CCc1cc(-c2ccc(OCCC[N+](C)(C)CC(=O)NCCCC)c(CC=C)c2)c2oc(=S)n(Cc3cccc(Cl)c3Cl)c2c1.[Br-] | 64
C=CCc1cc(-c2ccc(OCCC[N+](C)(C)CC(=O)NCCCC)c(CC=C)c2)c2oc(=S)n(Cc3cccc(Br)c3)c2c1.[Br-] | 16

Test system: Staphylococcus aureus
Assay: Antibacterial activity against methicillin-resistant Staphylococcus aureus clinical isolate M20 by CLSI based micro-broth dilution method
Type: functional

Compound | MIC [µg/mL]
C=CCc1cc(-c2ccc(OCCC[N+](C)(C)CC(=O)NCCCC)c(CC=C)c2)c2oc(=S)n(Cc3ccc(F)cc3Cl)c2c1.[Br-] | 16
C=CCc1cc(-c2ccc(OCCC[N+](C)(C)CC(=O)NCCCC)c(CC=C)c2)c2oc(=S)n(Cc3cc(Cl)cc(Cl)c3)c2c1.[Br-] | 16
C=CCc1cc(-c2ccc(OCCC[N+](C)(C)CC(=O)NCCCC)c(CC=C)c2)c2oc(=S)n(Cc3cccc(Cl)c3Cl)c2c1.[Br-] | 8
C=CCc1cc(-c2ccc(OCCC[N+](C)(C)CC(=O)NCCCC)c(CC=C)c2)c2oc(=S)n(Cc3cccc(Br)c3)c2c1.[Br-] | 8

Test system: Staphylococcus aureus
Assay: Antibacterial activity against methicillin-resistant Staphylococcus aureus N315 by CLSI based micro-broth dilution method
Type: functional

Compound | MIC [µg/mL]
C=CCc1cc(-c2ccc(OCCC[N+](C)(C)CC(=O)NCCCC)c(CC=C)c2)c2oc(=S)n(Cc3ccc(F)cc3Cl)c2c1.[Br-] | 32
C=CCc1cc(-c2ccc(OCCC[N+](C)(C)CC(=O)NCCCC)c(CC=C)c2)c2oc(=S)n(Cc3cc(Cl)cc(Cl)c3)c2c1.[Br-] | 64
C=CCc1cc(-c2ccc(OCCC[N+](C)(C)CC(=O)NCCCC)c(CC=C)c2)c2oc(=S)n(Cc3cccc(Cl)c3Cl)c2c1.[Br-] | 64
C=CCc1cc(-c2ccc(OCCC[N+](C)(C)CC(=O)NCCCC)c(CC=C)c2)c2oc(=S)n(Cc3cccc(Br)c3)c2c1.[Br-] | 16

Test system: Staphylococcus aureus
Assay: Antibacterial activity against methicillin-resistant Staphylococcus aureus clinical isolate M16 by CLSI based micro-broth dilution method
Type: functional

Compound | MIC [µg/mL]
C=CCc1cc(-c2ccc(OCCC[N+](C)(C)CC(=O)NCCCC)c(CC=C)c2)c2oc(=S)n(Cc3ccc(F)cc3Cl)c2c1.[Br-] | 16
C=CCc1cc(-c2ccc(OCCC[N+](C)(C)CC(=O)NCCCC)c(CC=C)c2)c2oc(=S)n(Cc3cc(Cl)cc(Cl)c3)c2c1.[Br-] | 32
C=CCc1cc(-c2ccc(OCCC[N+](C)(C)CC(=O)NCCCC)c(CC=C)c2)c2oc(=S)n(Cc3cccc(Cl)c3Cl)c2c1.[Br-] | 64
C=CCc1cc(-c2ccc(OCCC[N+](C)(C)CC(=O)NCCCC)c(CC=C)c2)c2oc(=S)n(Cc3cccc(Br)c3)c2c1.[Br-] | 8

Test system: Staphylococcus aureus
Assay: Antibacterial activity against methicillin-resistant Staphylococcus aureus clinical isolate M13 by CLSI based micro-broth dilution method
Type: functional

Compound | MIC [µg/mL]
C=CCc1cc(-c2ccc(OCCC[N+](C)(C)CC(=O)NCCCC)c(CC=C)c2)c2oc(=S)n(Cc3ccc(F)cc3Cl)c2c1.[Br-] | 64
C=CCc1cc(-c2ccc(OCCC[N+](C)(C)CC(=O)NCCCC)c(CC=C)c2)c2oc(=S)n(Cc3cc(Cl)cc(Cl)c3)c2c1.[Br-] | 32
C=CCc1cc(-c2ccc(OCCC[N+](C)(C)CC(=O)NCCCC)c(CC=C)c2)c2oc(=S)n(Cc3cccc(Cl)c3Cl)c2c1.[Br-] | 64
C=CCc1cc(-c2ccc(OCCC[N+](C)(C)CC(=O)NCCCC)c(CC=C)c2)c2oc(=S)n(Cc3cccc(Br)c3)c2c1.[Br-] | 8

Test system: Staphylococcus aureus
Assay: Antibacterial activity against methicillin-resistant Staphylococcus aureus clinical isolate M14 by CLSI based micro-broth dilution method
Type: functional

Compound | MIC [µg/mL]
C=CCc1cc(-c2ccc(OCCC[N+](C)(C)CC(=O)NCCCC)c(CC=C)c2)c2oc(=S)n(Cc3ccc(F)cc3Cl)c2c1.[Br-] | 16
C=CCc1cc(-c2ccc(OCCC[N+](C)(C)CC(=O)NCCCC)c(CC=C)c2)c2oc(=S)n(Cc3cc(Cl)cc(Cl)c3)c2c1.[Br-] | 32
C=CCc1cc(-c2ccc(OCCC[N+](C)(C)CC(=O)NCCCC)c(CC=C)c2)c2oc(=S)n(Cc3cccc(Cl)c3Cl)c2c1.[Br-] | 32
C=CCc1cc(-c2ccc(OCCC[N+](C)(C)CC(=O)NCCCC)c(CC=C)c2)c2oc(=S)n(Cc3cccc(Br)c3)c2c1.[Br-] | 8

Test system: Escherichia coli
Assay: Antibacterial activity against Escherichia coli ATCC 25922 by CLSI based micro-broth dilution method
Type: functional

Compound | MIC [µg/mL]
C[C@@H](O)[C@H]1C(=O)N2C(C(=O)O)=C(S[C@@H]3CN[C@H](C(=O)N(C)C)C3)[C@H](C)[C@H]12 [MEROPENEM] | 0.063 (≈ 0.164 µM)
C=CCc1cc(-c2ccc(OCCC[N+](C)(C)CC(=O)NCCCC)c(CC=C)c2)c2oc(=S)n(Cc3ccc(F)cc3Cl)c2c1.[Br-] | > 128
C=CCc1cc(-c2ccc(OCCC[N+](C)(C)CC(=O)NCCCC)c(CC=C)c2)c2oc(=S)n(Cc3cc(Cl)cc(Cl)c3)c2c1.[Br-] | > 128
C=CCc1cc(-c2ccc(OCCC[N+](C)(C)CC(=O)NCCCC)c(CC=C)c2)c2oc(=S)n(Cc3cccc(Cl)c3Cl)c2c1.[Br-] | > 128
C=CCc1cc(-c2ccc(OCCC[N+](C)(C)CC(=O)NCCCC)c(CC=C)c2)c2oc(=S)n(Cc3cccc(Br)c3)c2c1.[Br-] | > 128

Test system: Staphylococcus aureus
Assay: Antibacterial activity against methicillin-resistant Staphylococcus aureus clinical isolate M21 by CLSI based micro-broth dilution method
Type: functional

Compound | MIC [µg/mL]
C=CCc1cc(-c2ccc(OCCC[N+](C)(C)CC(=O)NCCCC)c(CC=C)c2)c2oc(=S)n(Cc3ccc(F)cc3Cl)c2c1.[Br-] | 16
C=CCc1cc(-c2ccc(OCCC[N+](C)(C)CC(=O)NCCCC)c(CC=C)c2)c2oc(=S)n(Cc3cc(Cl)cc(Cl)c3)c2c1.[Br-] | 16
C=CCc1cc(-c2ccc(OCCC[N+](C)(C)CC(=O)NCCCC)c(CC=C)c2)c2oc(=S)n(Cc3cccc(Cl)c3Cl)c2c1.[Br-] | 8
C=CCc1cc(-c2ccc(OCCC[N+](C)(C)CC(=O)NCCCC)c(CC=C)c2)c2oc(=S)n(Cc3cccc(Br)c3)c2c1.[Br-] | 16
